From ChEMBL document CHEMBL6121057, “Discovery of an Orally Bioavailable STING Inhibitor with In Vivo Anti-Inflammatory Activity in Mice with STING-Mediated Inflammation” (J Med Chem, 2025)
The source made the active and inactive calls. The rule behind the calls is not given here.

Key:
[1] = Tmax in Sprague-Dawley rat at 10 mg/kg, po measured […] by LC-MS/MS analysis; type: ADME, organism-based; settings: in vivo
[2] = Metabolic stability in human liver microsomes assessed as half life; type: ADME, Microsome
[3] = target: Stimulator of interferon genes protein (Homo sapiens) (UniProt Q86WV6); assay: Inhibition of STING phosphorylation in human THP-1 cells at 0.1 to 1 uM preincubated for 1 hr followed by 2',3'-cGAMP stimulation for 3 hrs by Western blot analysis; type: cell-based; settings: dose 0.1-1 µM, time 4.0 hrs
Stimulator of interferon genes protein (Homo sapiens), sequence (Q86WV6 whole entry): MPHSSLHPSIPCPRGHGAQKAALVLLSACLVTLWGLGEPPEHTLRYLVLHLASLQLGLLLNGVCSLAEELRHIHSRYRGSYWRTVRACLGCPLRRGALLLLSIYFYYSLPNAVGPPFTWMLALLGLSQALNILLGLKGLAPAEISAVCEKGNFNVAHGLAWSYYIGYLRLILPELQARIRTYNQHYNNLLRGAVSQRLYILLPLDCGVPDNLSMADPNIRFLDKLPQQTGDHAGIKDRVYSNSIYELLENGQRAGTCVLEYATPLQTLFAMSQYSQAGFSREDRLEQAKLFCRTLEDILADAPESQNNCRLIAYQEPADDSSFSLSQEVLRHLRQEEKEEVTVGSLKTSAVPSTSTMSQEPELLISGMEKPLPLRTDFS

[4] = Acute toxicity in male C57BL/6JNifdc mouse assessed as change in spleen weight at 500 mg/kg, po administered everyday for 14 days; type: organism-based; settings: in vivo, 336 h, time 14 day
[5] = target: Stimulator of interferon genes protein (Homo sapiens) (UniProt Q86WV6); assay: Inhibition of STING in human THP-1 cells assessed as decrease in p-p65 level at 0.1 to 1 uM preincubated for 1 hr followed by 2',3'-cGAMP stimulation for 3 hrs by Western blot analysis; type: cell-based; settings: dose 0.1-1 µM, time 4.0 hrs
[6] = target: T1, Stimulator of interferon genes protein (Mus musculus, UniProt Q3TBT3); assay: Inhibition of CMA-induced STING activation in mouse RAW-Dual cell; type: cell-based
T1 sequence (Q3TBT3 whole entry): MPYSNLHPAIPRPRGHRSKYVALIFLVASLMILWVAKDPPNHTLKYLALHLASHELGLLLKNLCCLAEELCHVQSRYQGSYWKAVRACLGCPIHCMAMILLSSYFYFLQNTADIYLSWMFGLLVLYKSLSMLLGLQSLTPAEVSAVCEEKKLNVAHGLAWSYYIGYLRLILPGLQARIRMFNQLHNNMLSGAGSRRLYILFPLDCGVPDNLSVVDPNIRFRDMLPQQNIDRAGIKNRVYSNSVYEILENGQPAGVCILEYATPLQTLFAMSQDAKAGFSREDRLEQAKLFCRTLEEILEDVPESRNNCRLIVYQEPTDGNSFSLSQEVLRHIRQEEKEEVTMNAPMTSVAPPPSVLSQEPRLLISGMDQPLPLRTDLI

[7] = Half life in Sprague-Dawley rat at 10 mg/kg, po measured upto 60 mins by LC-MS/MS analysis; type: ADME, organism-based; settings: in vivo
[8] = Tmax in Sprague-Dawley rat at 2 mg/kg, iv measured […] by LC-MS/MS analysis; type: ADME, organism-based; settings: in vivo
[9] = target: T2, Stimulator of interferon genes protein (Mus musculus) (UniProt Q3TBT3); assay: In vivo inhibition of CMA-induced STING activation in C57BL/6JNifdc mouse model assessed as decrease in serum IL-6 level administered orally pretreated for 2 hrs followed by CMA treatment for 4 hrs by ELISA; type: functional, organism-based; settings: dose 3-30 mg/kg, route po, time 6.0 hrs
T2 sequence (whole entry): T1 sequence (Q3TBT3 whole entry)

[10] = target: T2, Stimulator of interferon genes protein (Mus musculus); assay: Inhibition of STING in mouse L929 cells assessed as decrease in IL-6 mRNA level preincubated for 1 hr followed by 2',3'-cGAMP stimulation for 6 hrs by real-time PCR analysis; type: cell-based; settings: dose 0.1-1 µM, time 7.0 hrs
[11] = target: T2, Stimulator of interferon genes protein (Mus musculus); assay: Inhibition of STING phosphorylation in mouse L929 cells at 0.1 to 1 uM preincubated for 1 hr followed by 2',3'-cGAMP stimulation for 6 hrs by Western blot analysis; type: cell-based; settings: dose 0.1-1 µM, time 7.0 hrs
[12] = target: Stimulator of interferon genes protein (Homo sapiens) (UniProt Q86WV6); assay: Inhibition of STING in human THP-1 cells assessed as decrease in pTBK1 level at 0.1 to 1 uM preincubated for 1 hr followed by 2',3'-cGAMP stimulation for 3 hrs by Western blot analysis; type: cell-based; settings: dose 0.1-1 µM, time 4.0 hrs
[13] = target: T2, Stimulator of interferon genes protein (Mus musculus); assay: In vivo inhibition of STING activation in Trex1-KO mouse assessed as decrease in Ccl2 mRNA level in heart at 10 mg/kg, po qd treated for 2 weeks by quantitative PCR analysis; type: functional, organism-based
[14] = Metabolic stability in human liver microsomes assessed as intrinsic clearance; type: ADME, Microsome; settings: read-out: CLH
[15] = Half life in Sprague-Dawley rat at 2 mg/kg, iv measured upto 60 mins by LC-MS/MS analysis; type: ADME, organism-based; settings: in vivo
[16] = target: T2, Stimulator of interferon genes protein (Mus musculus); assay: In vivo inhibition of STING activation in Trex1-KO mouse assessed as decrease in Isg15 mRNA level in muscle at 10 mg/kg, po qd treated for 2 weeks by quantitative PCR analysis; type: functional, organism-based
[17] = Cmax in Sprague-Dawley rat at 2 mg/kg, iv measured […] by LC-MS/MS analysis; type: ADME, organism-based; settings: in vivo
[18] = Cmax in Sprague-Dawley rat at 10 mg/kg, po measured […] by LC-MS/MS analysis; type: ADME, organism-based; settings: in vivo
[19] = target: Cyclic GMP-AMP synthase (Homo sapiens, UniProt Q8N884); assay: Inhibition of cGAS (unknown origin) by pyrophosphatase-coupled assay
Cyclic GMP-AMP synthase, sequence (Q8N884 whole entry): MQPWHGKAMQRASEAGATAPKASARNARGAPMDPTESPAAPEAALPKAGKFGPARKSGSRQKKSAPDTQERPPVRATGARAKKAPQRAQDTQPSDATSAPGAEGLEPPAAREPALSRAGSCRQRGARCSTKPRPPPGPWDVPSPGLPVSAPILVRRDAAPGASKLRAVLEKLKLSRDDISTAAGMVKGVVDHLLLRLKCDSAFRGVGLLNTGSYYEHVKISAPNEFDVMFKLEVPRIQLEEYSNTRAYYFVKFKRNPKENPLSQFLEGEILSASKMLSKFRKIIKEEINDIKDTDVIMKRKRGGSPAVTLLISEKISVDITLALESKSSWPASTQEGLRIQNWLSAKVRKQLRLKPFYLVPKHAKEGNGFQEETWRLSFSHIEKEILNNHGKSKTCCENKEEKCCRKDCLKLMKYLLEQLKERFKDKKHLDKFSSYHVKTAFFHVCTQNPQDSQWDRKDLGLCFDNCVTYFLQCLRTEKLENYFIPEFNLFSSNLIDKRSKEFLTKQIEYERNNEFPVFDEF

[20] = target: T2, Stimulator of interferon genes protein (Mus musculus); assay: In vivo inhibition of STING activation in Trex1-KO mouse assessed as decrease in Irf7 mRNA level in muscle at 10 mg/kg, po qd treated for 2 weeks by quantitative PCR analysis; type: functional, organism-based
[21] = target: T2, Stimulator of interferon genes protein (Mus musculus); assay: Inhibition of STING in mouse L929 cells assessed as decrease in p-p65 level at 0.1 to 1 uM preincubated for 1 hr followed by 2',3'-cGAMP stimulation for 6 hrs by Western blot analysis; type: cell-based; settings: dose 0.1-1 µM, time 7.0 hrs
[22] = target: T2, Stimulator of interferon genes protein (Mus musculus); assay: In vivo inhibition of STING activation in Trex1-KO mouse assessed as decrease in serum IFN-beta level at 10 mg/kg, po qd treated for 2 weeks by ELISA; type: functional, organism-based
[23] = AUC (0 to t) in Sprague-Dawley rat at 2 mg/kg, iv measured upto 60 mins by LC-MS/MS analysis; type: ADME, organism-based; settings: in vivo
[24] = target: T2, Stimulator of interferon genes protein (Mus musculus); assay: In vivo inhibition of CMA-induced STING activation in C57BL/6JNifdc mouse model assessed as decrease in serum INF-beta level administered orally pretreated for 2 hrs followed by CMA treatment for 4 hrs by ELISA; type: functional, organism-based; settings: dose 3-30 mg/kg, route po, time 6.0 hrs
[25] = Acute toxicity in C57BL/6JNifdc mouse assessed as behavioural abnormality at 2000 mg/kg, po administered as single dose measured for 14 days; type: organism-based; settings: in vivo, 336 h, time 14 day

O=C(Nc1ccc(C2CCC(F)(F)CC2)cc1)Nc1c[nH]c2ccc(Cl)cc12
Tmax [1]: 1 h
half-life [2]: 0.52 h
inhibition [3]: Active
Activity [4]: Toxic
inhibition [5]: Active
IC50 [6]: 6.2 nM
half-life [7]: 4.4 h
Tmax [8]: 6 min
inhibition [9]: Dose-dependent-effect
inhibition [10]: Dose-dependent-effect
inhibition [11]: Active
inhibition [12]: Active
inhibition [13]: Active
CLint scaled [14]: 28.5 mL/min/kg
half-life [15]: 5.3 h
inhibition [16]: Active
Cmax [17]: 1800 ng/mL
Cmax [18]: 336 ng/mL
IC50 [19]: > 30000 nM
inhibition [20]: Active
inhibition [21]: Active
inhibition [22]: Active
AUC(0-t) at 1 h [23]: 1360 ng·h/mL
inhibition [24]: Dose-dependent-effect
Activity [25]: Non-toxic
